According to patent US8729081B2, “Compositions and methods for treating alcohol use disorders, pain and other diseases” (VM Discovery Inc., priority 2008, dated 2014):

Legend:
Format in all cases: biochemical
ROCK1 = molecular target: T1, ROCK1 (Homo sapiens, UniProt Q13464); experiment: Kinase profiling
T1 construct: purchased Reaction Biology Corp
Protocol: [The procedure below names another target; the source lists this target under the same test.] (§1) Kinase profiling was performed using HotSpot technology (Reaction Biology Corp. 11 Malvern, Pa., USA). This technology is a radioisotope-based P81 filter-binding assay. Compound of the present invention were dissolved in pure DMSO to make a 10 mM stock, then diluted in pure DMSO to make a serial dilution based on the IC50 ranges. PKCε (h) (0.4 nM, human recombinant protein expressed in insect cells. Mw=83.7 kDa) and substrate (20 μM peptide substrate, [RFARKGSLRQKNV]) were diluted in the reaction buffer (20 mM HEPES-HCl, pH 7.5, 10 mM MgCl2, 1 mM EGTA, 0.02% Brij35, 0.1 mM Na3VO4, 0.02 mg/ml BSA, 2 mM DTT, and 1% DMSO), and then 5 nL of compound was delivered into PKCε (h) and substrate mixture by acoustic technology using Echo 550 (LabCyte Inc., Sunnyvale, Calif.). The reaction was initiated by the addition of [γ-33P-ATP] into the reaction mixture (final concentration was 10 μM) and stopped after at least 40 min incubation at room temperature. The unreacted free 33P-ATP was washed away before detection.

PDPK1 = molecular target: T2, PDPK1 (Homo sapiens, UniProt O15530); experiment: Kinase profiling
T2 construct: purchased Reaction Biology Corp
Protocol: [The procedure below names another target; the source lists this target under the same test.] as §1

CAMKIIa_alpha = molecular target: T3, CAMKIIa_alpha (Homo sapiens, UniProt Q9UQM7); experiment: Kinase profiling
T3 construct: purchased Reaction Biology Corp
Protocol: [The procedure below names another target; the source lists this target under the same test.] as §1

PKCalpha = molecular target: T4, PKCalpha (Homo sapiens, UniProt P17252); experiment: Kinase profiling
T4 construct: purchased Reaction Biology Corp
Protocol: [The procedure below names another target; the source lists this target under the same test.] as §1

PKCzeta = molecular target: T5, PKCzeta (Homo sapiens, UniProt Q05513); experiment: Kinase profiling
T5 construct: purchased Reaction Biology Corp
Protocol: [The procedure below names another target; the source lists this target under the same test.] as §1

MEK1 = molecular target: T6, MEK1 (Homo sapiens, UniProt Q02750); experiment: Kinase profiling
T6 construct: purchased Reaction Biology Corp
Protocol: [The procedure below names another target; the source lists this target under the same test.] as §1

TrkA = molecular target: T7, TrkA (Homo sapiens, UniProt P04629); experiment: Kinase profiling
T7 construct: purchased Reaction Biology Corp
Protocol: [The procedure below names another target; the source lists this target under the same test.] as §1

cMET = molecular target: T8, cMET (Homo sapiens, UniProt P08581); experiment: Kinase profiling
T8 construct: purchased Reaction Biology Corp
Protocol: [The procedure below names another target; the source lists this target under the same test.] as §1

PKCgamma = molecular target: T9, PKCgamma (Homo sapiens, UniProt P05129); experiment: Kinase profiling
T9 construct: purchased Reaction Biology Corp
Protocol: [The procedure below names another target; the source lists this target under the same test.] as §1

Akt1 = molecular target: T10, Akt1 (Homo sapiens, UniProt P31749); experiment: Kinase profiling
T10 construct: purchased Reaction Biology Corp
Protocol: [The procedure below names another target; the source lists this target under the same test.] as §1

PKCdelta = molecular target: T11, PKCdelta (Homo sapiens, UniProt Q05655); experiment: Kinase profiling
T11 construct: purchased Reaction Biology Corp
Protocol: [The procedure below names another target; the source lists this target under the same test.] as §1

CDK1/cyclinB = molecular target: T12, CDK1/cyclinB (Homo sapiens, UniProt P06493); experiment: Kinase profiling
T12 construct: purchased Reaction Biology Corp
Protocol: [The procedure below names another target; the source lists this target under the same test.] as §1

PKCbeta1 = molecular target: T13, PKCbeta1 (Homo sapiens, UniProt P05771); experiment: Kinase profiling
T13 construct: purchased Reaction Biology Corp
Protocol: [The procedure below names another target; the source lists this target under the same test.] as §1

PKCmu = molecular target: T14, PKCmu (Homo sapiens, UniProt Q15139); experiment: Kinase profiling
T14 construct: purchased Reaction Biology Corp
Protocol: [The procedure below names another target; the source lists this target under the same test.] as §1

PKA = molecular target: T15, PKA (Homo sapiens, UniProt P17612); experiment: Kinase profiling
T15 construct: purchased Reaction Biology Corp
Protocol: [The procedure below names another target; the source lists this target under the same test.] as §1

PKCtheta = molecular target: T16, PKCtheta (Homo sapiens, UniProt Q04759); experiment: Kinase profiling
T16 construct: purchased Reaction Biology Corp
Protocol: [The procedure below names another target; the source lists this target under the same test.] as §1

FYN = molecular target: T17, FYN (Homo sapiens, UniProt P06241); experiment: Kinase profiling
T17 construct: purchased Reaction Biology Corp
Protocol: [The procedure below names another target; the source lists this target under the same test.] as §1

RSK1 = molecular target: T18, RSK1 (Homo sapiens, UniProt Q15418); experiment: Kinase profiling
T18 construct: purchased Reaction Biology Corp
Protocol: [The procedure below names another target; the source lists this target under the same test.] as §1

PKCbeta2 = molecular target: T19, PKCbeta2 (Homo sapiens, UniProt P05771); experiment: Kinase profiling
T19 construct: purchased Reaction Biology Corp
Protocol: [The procedure below names another target; the source lists this target under the same test.] as §1

PKCeta = molecular target: T20, PKCeta (Homo sapiens, UniProt P24723); experiment: Kinase profiling
T20 construct: purchased Reaction Biology Corp
Protocol: [The procedure below names another target; the source lists this target under the same test.] as §1

PKCiota = molecular target: T21, PKCiota (Homo sapiens, UniProt P41743); experiment: Kinase profiling
T21 construct: purchased Reaction Biology Corp
Protocol: [The procedure below names another target; the source lists this target under the same test.] as §1

PKCε = molecular target: T22, PKCε (Homo sapiens, UniProt Q02156); experiment: Kinetic analysis of PKCε inhibition (initial velocity vs ATP, Lineweaver-Burk)
T22 construct: host or cells: insect cells
Protocol: FIG. 1. […] (A) Initial velocity (Vi) plotted against ATP concentration at various concentrations of the compound plus vehicle control.
The above in vitro assay can also be used to measure the initial velocity of the kinase reaction, varying the concentrations of ATP (1-60 μM) or S25 peptide substrate (1-500 nM). Values for km and Vmax are calculated for drug- and vehicle-treated samples by linear regression analysis of double reciprocal Lineweaver Burke plots (see Examples).

T22 sequence (Q02156 whole entry): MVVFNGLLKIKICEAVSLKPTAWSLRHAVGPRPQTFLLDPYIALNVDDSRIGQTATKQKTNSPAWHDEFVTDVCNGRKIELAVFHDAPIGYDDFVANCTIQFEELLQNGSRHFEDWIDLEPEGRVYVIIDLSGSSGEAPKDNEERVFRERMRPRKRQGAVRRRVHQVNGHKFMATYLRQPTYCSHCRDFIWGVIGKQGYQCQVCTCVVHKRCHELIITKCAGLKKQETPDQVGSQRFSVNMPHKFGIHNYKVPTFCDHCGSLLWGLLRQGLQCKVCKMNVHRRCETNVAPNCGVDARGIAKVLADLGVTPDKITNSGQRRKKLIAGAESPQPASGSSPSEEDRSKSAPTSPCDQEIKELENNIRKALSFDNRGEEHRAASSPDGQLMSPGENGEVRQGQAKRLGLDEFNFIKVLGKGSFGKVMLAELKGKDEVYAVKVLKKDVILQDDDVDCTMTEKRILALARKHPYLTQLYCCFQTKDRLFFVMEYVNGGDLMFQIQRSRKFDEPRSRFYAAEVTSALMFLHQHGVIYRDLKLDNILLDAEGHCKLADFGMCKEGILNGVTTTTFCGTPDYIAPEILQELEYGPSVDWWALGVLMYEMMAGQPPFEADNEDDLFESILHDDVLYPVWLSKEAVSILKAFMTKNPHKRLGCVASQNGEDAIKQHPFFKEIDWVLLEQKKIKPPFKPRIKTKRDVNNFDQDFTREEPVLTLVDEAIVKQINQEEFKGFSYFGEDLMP
T16 sequence (Q04759 whole entry): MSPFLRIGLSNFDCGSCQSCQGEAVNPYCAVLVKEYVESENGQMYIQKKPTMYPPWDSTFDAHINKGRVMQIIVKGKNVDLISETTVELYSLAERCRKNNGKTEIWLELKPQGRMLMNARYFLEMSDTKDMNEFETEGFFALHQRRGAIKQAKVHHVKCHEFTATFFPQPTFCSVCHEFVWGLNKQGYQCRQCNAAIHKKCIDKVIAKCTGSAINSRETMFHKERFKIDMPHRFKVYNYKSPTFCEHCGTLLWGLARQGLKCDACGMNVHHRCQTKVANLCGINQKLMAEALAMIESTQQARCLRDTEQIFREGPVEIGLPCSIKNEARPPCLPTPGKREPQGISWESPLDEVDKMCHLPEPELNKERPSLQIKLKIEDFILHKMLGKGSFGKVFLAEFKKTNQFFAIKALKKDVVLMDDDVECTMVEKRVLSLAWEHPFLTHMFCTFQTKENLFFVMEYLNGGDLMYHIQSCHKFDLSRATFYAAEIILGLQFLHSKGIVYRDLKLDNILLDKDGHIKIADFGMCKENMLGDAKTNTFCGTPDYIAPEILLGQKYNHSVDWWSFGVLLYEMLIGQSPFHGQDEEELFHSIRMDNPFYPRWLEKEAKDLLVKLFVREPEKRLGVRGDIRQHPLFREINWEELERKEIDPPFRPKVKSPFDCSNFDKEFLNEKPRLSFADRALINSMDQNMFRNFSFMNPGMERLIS
T3 sequence (Q9UQM7 whole entry): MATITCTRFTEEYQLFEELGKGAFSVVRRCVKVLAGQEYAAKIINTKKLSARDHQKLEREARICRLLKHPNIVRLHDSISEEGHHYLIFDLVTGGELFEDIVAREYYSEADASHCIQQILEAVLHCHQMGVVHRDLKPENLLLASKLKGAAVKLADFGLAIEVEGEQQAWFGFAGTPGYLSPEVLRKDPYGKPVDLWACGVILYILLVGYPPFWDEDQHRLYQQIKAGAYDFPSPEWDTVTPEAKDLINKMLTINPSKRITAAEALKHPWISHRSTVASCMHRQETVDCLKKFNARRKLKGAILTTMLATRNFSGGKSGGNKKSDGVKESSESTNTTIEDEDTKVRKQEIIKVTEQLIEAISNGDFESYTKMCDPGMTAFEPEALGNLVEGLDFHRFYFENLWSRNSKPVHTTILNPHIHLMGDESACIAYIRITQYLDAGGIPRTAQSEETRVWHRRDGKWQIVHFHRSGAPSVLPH
T2 sequence (O15530 whole entry): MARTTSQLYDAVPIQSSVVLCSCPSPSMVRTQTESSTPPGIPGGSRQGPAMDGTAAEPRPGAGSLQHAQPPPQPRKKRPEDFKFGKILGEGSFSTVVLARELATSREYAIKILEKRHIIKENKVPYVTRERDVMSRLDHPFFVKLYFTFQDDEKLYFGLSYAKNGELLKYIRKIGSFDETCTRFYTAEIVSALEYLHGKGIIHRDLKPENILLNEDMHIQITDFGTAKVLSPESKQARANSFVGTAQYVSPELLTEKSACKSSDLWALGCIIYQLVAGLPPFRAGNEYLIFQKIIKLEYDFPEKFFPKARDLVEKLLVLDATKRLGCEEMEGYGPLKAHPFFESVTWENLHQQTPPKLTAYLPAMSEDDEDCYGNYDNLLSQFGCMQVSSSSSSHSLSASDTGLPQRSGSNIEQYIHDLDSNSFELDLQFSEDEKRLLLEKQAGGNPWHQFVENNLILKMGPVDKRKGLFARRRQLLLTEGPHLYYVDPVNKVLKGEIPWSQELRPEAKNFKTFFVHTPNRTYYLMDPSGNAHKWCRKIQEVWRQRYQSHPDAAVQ
T12 sequence (P06493 whole entry): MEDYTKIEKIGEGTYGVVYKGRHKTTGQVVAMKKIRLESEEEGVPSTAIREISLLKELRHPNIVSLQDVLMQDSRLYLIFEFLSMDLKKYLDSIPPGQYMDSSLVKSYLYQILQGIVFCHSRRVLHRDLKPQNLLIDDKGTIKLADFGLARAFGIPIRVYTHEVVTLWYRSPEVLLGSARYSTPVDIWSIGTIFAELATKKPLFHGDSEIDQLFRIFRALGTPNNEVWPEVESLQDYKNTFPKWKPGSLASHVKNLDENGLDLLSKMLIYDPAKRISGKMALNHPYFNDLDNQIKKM
T12 sequence (P14635 whole entry partner): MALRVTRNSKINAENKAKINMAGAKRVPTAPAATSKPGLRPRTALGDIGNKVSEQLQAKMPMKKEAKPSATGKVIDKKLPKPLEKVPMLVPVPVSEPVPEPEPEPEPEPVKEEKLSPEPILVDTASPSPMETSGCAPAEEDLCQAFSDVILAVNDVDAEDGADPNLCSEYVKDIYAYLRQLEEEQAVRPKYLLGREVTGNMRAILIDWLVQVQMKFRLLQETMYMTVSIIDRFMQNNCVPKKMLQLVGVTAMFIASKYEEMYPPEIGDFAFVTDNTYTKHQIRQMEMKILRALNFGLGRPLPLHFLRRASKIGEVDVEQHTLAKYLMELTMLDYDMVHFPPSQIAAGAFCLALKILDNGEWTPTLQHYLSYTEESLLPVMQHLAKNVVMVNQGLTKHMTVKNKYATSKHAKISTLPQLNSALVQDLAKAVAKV
T6 sequence (Q02750 whole entry): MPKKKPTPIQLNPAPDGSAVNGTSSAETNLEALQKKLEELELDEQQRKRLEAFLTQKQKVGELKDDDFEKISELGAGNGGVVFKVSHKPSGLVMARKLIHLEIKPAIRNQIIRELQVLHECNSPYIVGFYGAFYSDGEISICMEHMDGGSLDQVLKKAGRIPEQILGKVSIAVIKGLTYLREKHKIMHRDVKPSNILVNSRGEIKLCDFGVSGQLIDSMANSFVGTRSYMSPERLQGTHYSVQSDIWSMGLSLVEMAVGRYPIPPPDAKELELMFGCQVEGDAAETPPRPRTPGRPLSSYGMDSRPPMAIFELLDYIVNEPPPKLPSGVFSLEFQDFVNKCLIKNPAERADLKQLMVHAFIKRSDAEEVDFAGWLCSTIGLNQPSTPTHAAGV

Question: For `O=C(NCCCN1CCCC1)c1ccc(/C=C2\Sc3ccccc3N(Cc3ccccc3F)C2=O)cc1` [Compound 481, 4-{(Z/E)-[4-(2-fluorobenzyl)-3-oxo-3,4-dihydro-2H-1,4-benzothiazin-2-ylidene]methyl}-N-[3-(pyrrolidin-1-yl)propyl]benzamide], which IC50 (ROCK1) is on record?
Answer: The IC50 was over 20 µM.

Question: And the IC50 (PDPK1)?
Answer: The IC50 was over 20 µM.

Question: And the IC50 (CAMKIIa_alpha)?
Answer: Its IC50 is over 20 µM.

Question: What about the IC50 (PKCalpha) of the same compound?
Answer: The IC50 was over 20 µM.

Question: What about the IC50 (PKCzeta) of the same compound?
Answer: Its IC50 is over 20 µM.

Question: What about the IC50 (MEK1) of the same compound?
Answer: The IC50 was over 20 µM.

Question: What about the IC50 (TrkA) of the same compound?
Answer: Its IC50 is over 20 µM.

Question: And the IC50 (cMET)?
Answer: The IC50 was over 20 µM.

Question: And the IC50 (PKCgamma)?
Answer: Its IC50 is over 20 µM.

Question: What about the IC50 (Akt1) of the same compound?
Answer: Its IC50 is over 20 µM.

Question: And the IC50 (PKCdelta)?
Answer: The IC50 was over 20 µM.

Question: And the IC50 (CDK1/cyclinB)?
Answer: The IC50 was over 20 µM.

Question: And the IC50 (PKCbeta1)?
Answer: The IC50 was over 20 µM.

Question: And the IC50 (PKCmu)?
Answer: Its IC50 is over 20 µM.

Question: And the IC50 (PKA)?
Answer: Its IC50 is over 20 µM.

Question: And the IC50 (PKCtheta)?
Answer: The IC50 was over 20 µM.

Question: And the IC50 (FYN)?
Answer: The IC50 was over 20 µM.

Question: What about the IC50 (RSK1) of the same compound?
Answer: Its IC50 is over 20 µM.

Question: And the IC50 (PKCbeta2)?
Answer: Its IC50 is over 20 µM.

Question: And the IC50 (PKCeta)?
Answer: Its IC50 is over 20 µM.

Question: And the IC50 (PKCiota)?
Answer: Its IC50 is over 20 µM.

Question: And the “mode of PKCε inhibition with respect to ATP” value (PKCε; FIG. 1, kinetic analysis)?
Answer: Its value is “non-competitively with ATP”.

Question: What about the “Vmax and km in Lineweaver-Burk double reciprocal plot” value (PKCε; FIG. 1B, various compound concentrations plus vehicle control (4 conditions)) of the same compound?
Answer: Its value is “differences in Vmax but not in km”.
